Source: US6372770B1, “Benzoxazoles” (Euro-Celtique, S.A., priority 1994, dated 2002)
pIC50: −log10 of the molar value. Structures can show the parent of a compound that is named as a salt.

Experiments:
[1] = target: T1, PDE III (Homo sapiens, UniProt Q14432); test: Type III PDE inhibition, hydrolysis of [3H]-cyclic AMP; type: biochemical; details: for pIC50: Type III PDE isolated from human platelets, 0.2 μM cyclic AMP
T1 construct: Fractions containing PDE III activity are pooled and dialyzed overnight; from tissue; host or cells: human platelets
Protocol: The Type III PDE is isolated from human platelets using a procedure similar to that previously described by Washer, R. E. et al., Biochem. Pharmacol., 35:787, 1986. Briefly, 1-2 units of platelets are suspended in an equal volume of buffer (20 mM Tris-HCl, pH 7.5, containing 2 mM magnesium acetate, 1 mM dithiothreitol, and 5 mM Na2EDTA). The proteinase inhibitor phenylmethyl-sulfonyl fluoride (PMSF) is also included in this buffer at a final concentration of 200 μM. The suspension is homogenized using a polytron and the homogenate centrifuged at 100,000×g for 60 minutes. This and all subsequent procedures are performed at 0-4° C. The supernatant is then filtered through four layers of gauze and applied to a DEAE-Trisacryl M column, previously equilibrated with buffer B (20 mM Tris-HCl, pH 7.5, containing 1 mM magnesium acetate, 1 mM dithiothreitol and 200 μM PMSF). After application of the sample, the column is washed with several bed volumes of buffer B, after which the different forms of PDE are eluted from the column using two successive linear NaCl gradients (0.05-0.15 M, 300 ml total; 0.15-0.40 M, 200 ml total). Five ml fractions are collected and assayed for cyclic AMP and cyclic GMP PDE activity. Fractions containing PDE III activity are pooled and dialyzed overnight against 4 L of buffer B. The dialyzed PDE III is then concentrated to 10% of the original volume, diluted to 50% with ethylene glycol monoethyl ether and stored at −20° C. PDE III can typically be retained for up to four weeks with little or no loss of activity.
(§1) Enzyme activity is assessed by measuring the hydrolysis of [^3H]-cyclic AMP, as described by Thompson, W. J. et al., Adv. Cyclic Nucleotide Res. 10:69, 1979. The cyclic AMP concentration used in this assay is 0.2 μM, which approximates to the Km value. Protein concentration is adjusted to ensure that no more than 15% of the available substrate is hydrolyzed during the incubation period.
(§2) All test compounds are dissolved in dimethyl sulfoxide (final concentration of 2.5%). This concentration of dimethyl sulfoxide inhibits enzyme activity by approximately 10%.

[2] = tested on: T2, PDE IV; test: Type IV PDE inhibition, hydrolysis of [3H]-cyclic AMP; type: biochemical, bovine; details: Type IV PDE isolated from bovine tracheal smooth muscle; 0.2 μM cyclic AMP; read-out: PDE IV IC50
T2 construct: PDE IV IC50; other: Type IV PDE isolated from bovine tracheal smooth muscle; rolipram run in the
Text: The PDE IV inhibitory compounds of the present invention may be examined for their PDE IV inhibitory effects via the techniques set forth in the following examples, wherein the ability of the compounds to inhibit PDE IV isolated from bovine tracheal smooth muscle is set forth.
The Type IV PDE is isolated from bovine tracheal smooth muscle using a procedure similar to that previously described by Silver, P. J. et al., Eur. J. Pharmacol. 150:85,1988.(1). Briefly, smooth muscle from bovine trachea is minced and homogenized using a polytron in 10 volumes of an extraction buffer containing 10 mM Tris-acetate (pH 7.5), 2 mM magnesium chloride, 1 mM dithiothreitol and 2,000 units/ml of aprotinin. This and all subsequent procedures are performed at 0-4° C. The homogenate is sonicated and then centrifuged at 48,000×g for 30 minutes. The resulting supernatant is applied to a DEAE Trisacryl M column previously equilibrated with sodium acetate and dithiothreitol. After applications of the sample, the column is washed with sodium acetate/dithiothreitol, after whlich the different forms of PDE are eluted from the column using a linear Tris-HCl/NaCl gradient. Fractions containing Type IV PDE are collected, dialyzed and concentrated to 14% of the original volume. The concentrated fractions are diluted to 50% with ethylene glycol and stored at −20° C.
as §1, with “approximates” for “approximates to”
as §2

T1 sequence (Q14432 whole entry): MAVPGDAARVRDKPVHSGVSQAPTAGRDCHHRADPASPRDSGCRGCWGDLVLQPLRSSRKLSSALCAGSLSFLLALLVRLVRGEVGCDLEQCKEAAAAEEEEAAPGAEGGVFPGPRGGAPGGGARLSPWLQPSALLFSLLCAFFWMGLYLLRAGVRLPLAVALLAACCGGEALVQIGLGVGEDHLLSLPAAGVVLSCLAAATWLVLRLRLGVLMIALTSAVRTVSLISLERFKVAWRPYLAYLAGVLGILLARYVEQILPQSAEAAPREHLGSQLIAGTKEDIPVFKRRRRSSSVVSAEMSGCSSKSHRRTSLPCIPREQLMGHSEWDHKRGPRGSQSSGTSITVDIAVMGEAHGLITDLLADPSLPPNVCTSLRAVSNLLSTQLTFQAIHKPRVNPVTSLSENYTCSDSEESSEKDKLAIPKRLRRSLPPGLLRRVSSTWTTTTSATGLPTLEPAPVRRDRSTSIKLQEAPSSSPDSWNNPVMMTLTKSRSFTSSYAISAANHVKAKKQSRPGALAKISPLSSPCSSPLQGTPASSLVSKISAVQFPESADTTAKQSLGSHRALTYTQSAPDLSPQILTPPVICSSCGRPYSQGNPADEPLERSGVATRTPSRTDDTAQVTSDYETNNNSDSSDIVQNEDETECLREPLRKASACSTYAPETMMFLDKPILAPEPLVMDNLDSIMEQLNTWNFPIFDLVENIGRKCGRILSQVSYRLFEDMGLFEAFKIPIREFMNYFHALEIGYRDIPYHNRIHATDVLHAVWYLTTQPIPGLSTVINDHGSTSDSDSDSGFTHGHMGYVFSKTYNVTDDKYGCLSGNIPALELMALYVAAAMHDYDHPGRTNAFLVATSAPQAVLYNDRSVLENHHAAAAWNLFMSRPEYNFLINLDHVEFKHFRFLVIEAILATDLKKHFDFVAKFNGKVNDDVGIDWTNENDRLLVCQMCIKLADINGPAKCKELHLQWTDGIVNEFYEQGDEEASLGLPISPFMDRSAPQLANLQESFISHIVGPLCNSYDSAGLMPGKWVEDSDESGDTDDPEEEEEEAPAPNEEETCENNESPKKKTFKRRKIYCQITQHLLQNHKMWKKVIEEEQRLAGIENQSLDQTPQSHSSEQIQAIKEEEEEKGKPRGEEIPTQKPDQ

Compound | pIC50 [1] | pIC50 [2] | inhibition at 10 µM ([1]; at 10 μM) [%]
COc1ccc(Cc2nc3cc(Cl)cc(CCO)c3o2)cc1OC1CCCC1 [Example 27, 2-(3-Cyclopentyloxy-4-methoxybenzyl)-5-chloro-7-(2-hydroxyethyl)Benzoxazole] | 4.42 | 6.19 | –
CC(C)(C)c1cc(Cc2nc3cc(Cl)cc(C#Cc4ccccn4)c3o2)cc(C(C)(C)C)c1O [Example 2, 5-Chloro-2-(3,5-di-t-butyl-4-hydroxy-benzyl)-7(2-(2-pyridyl)-ethynyl)-benzoxazole] | – | 8.00 | –
COc1ccc(Cc2nc3cccc(NC(=O)c4ccncc4)c3o2)cc1OC1CCCC1 [Example 16, 2-((3-Cyclopentyloxy-4-methoxy)benzyl)-7-(isonicotinoyl-amino)-benzoxazole Hydrochloride] | 4.36 | 5.22 | –
CCCc1cc(Cl)cc2nc(Cc3ccc(OC)c(OC4CCCC4)c3)oc12 [Example 40, 2-(3-Cyclopentyloxy-4-methoxybenzyl)-5-chloro-7-propylbenzoxazole] | < 3.52 | 6.04 | –
COCCCc1cc(Cl)cc2nc(Cc3ccccc3Cl)oc12 [Example 39, 2-(2-Chlorobenzyl)-5-chloro-7-(3-methoxy-1-propyl)Benzoxazole] | 4.27 | 4.82 | –
COc1ccc(Cc2nc3cccc(NCc4cccnc4)c3o2)cc1OC1CCCC1 [Example 34, 2-(3-Cyclopentyloxy-4-methoxybenzyl)-7-(3-pyridylmethylamino)Benzoxazole] | 4.48 | 6.00 | –
COc1ccc(Cc2nc3c(OCc4ccccn4)cccc3o2)cc1OC1CCCC1 [Example 10, 2-((3-Cyclopentyloxy-4-methoxy)benzyl)-4-(2-pyridylmethoxy)-benzoxazole Hydrochloride] | < 3.52 | 6.28 | –
COc1ccc(Cc2nc3cccc(NCc4ncc[nH]4)c3o2)cc1OC1CCCC1 [Example 35, 2-(3-Cyclopentyloxy-4-methoxybenzyl)-7-(2-imidazolylmethylamino)Benzoxazole] | < 3.52 | 4.71 | –
COc1ccc(Cc2nc3c(O)cccc3o2)cc1OC1CCCC1 [Example 7, 2-(3-Cyclopentyloxy-4-methoxybenzyl)-4-hydroxy-benzoxazole] | 3.90 | 6.30 | –
COc1ccc(Cc2nc3c(OC)cccc3o2)cc1OC1CCCC1 [Example 14, 2-((3-Cyclopentyloxy-4-methoxy)benzyl)-4-methoxy-benzoxazole] | 4.31 | 5.70 | –
COc1ccc(Cc2nc3cccc(N)c3o2)cc1OC1CCCC1 [Example 13, 7-Amino-2-((3-Cyclopentyloxy-4-methoxy)benzyl)-benzoxazole Hydrochloride] | 3.60 | 4.86 | –
Cc1cc(Cc2nc3c(O)cccc3o2)cc(C)c1O [Example 21, 2-((3,5-Dimethyl-4-hydroxy)benzyl)-4-hydroxybenzoxazole] | 3.98 | 4.61 | –
COc1ccc(CCc2nc3cc(Cl)ccc3o2)cc1OC [Example 43, 5-Chloro-2-[2-(3,4-dimethoxyphenyl)ethyl]Benzoxazole] | < 3.52 | 4.79 | –
OCCCc1cc(Cl)cc2nc(Cc3ccccc3)oc12 [Example 37, 2-Benzyl-5-chloro-7-(3-hydroxy-1-propyl)Benzoxazole] | 4.11 | 4.41 | –
2-(3-cyclopentyloxy-4-methoxybenzyl)-5-chlorobenzoxazole-7-ethanal Oxime [Example 31] | < 3.52 | 5.78 | –
COc1ccc(Cc2nc3cc(Cl)cc(Br)c3o2)cc1OC1CCCC1 [Example 4, 7-Bromo-5-chloro-2-(3-cyclopentyloxy-4-methoxybenzyl)-benzoxazole] | 5.13 | 4.60 | –

Compound | pIC50 [1] | pIC50 [2] | inhibition at 10 µM ([1]; at 10 μM) [%]
CC(C)(C)c1cc(Cc2nc3cccc(C#Cc4ccccn4)c3o2)cc(C(C)(C)C)c1O [Example 22] | – | 7.15 | –
OCCCc1cccc2nc(Cc3ccccc3Cl)oc12 [Example 41, 2-(2-Chlorobenzyl)-7-(3-hydroxy-1-propyl)Benzoxazole] | 4.00 | 4.16 | –
COc1ccc(Cc2nc3cccc(NC(=O)c4cccnc4)c3o2)cc1OC1CCCC1 [Example 15, 2-((3-Cyclopentyloxy-4-methoxy)benzyl)-7-(nicotinoyl-amino)-benzoxazole] | 3.75 | 5.32 | –
COc1ccc(Cc2nc3cccc([N+](=O)[O-])c3o2)cc1OC1CCCC1 [Example 6, 2-(3-Cyclopentyloxy-4-methoxybenzyl)-7-nitro-benzoxazole] | 6.22 | 5.80 | –
COC(=O)c1cccc2oc(Cc3cc(C(C)(C)C)c(O)c(C(C)(C)C)c3)nc12 [Example 46, 2-[4-Hydroxy-3,5-di-t-butyl-benzyl]-4-carbomethoxybenzoxazole] | 3.15 | 4.67 | –
COc1ccc(Cc2nc3cccc(NC(=O)c4ccccn4)c3o2)cc1OC1CCCC1 [Example 17, 2-((3-Cyclopentyloxy-4-methoxy)benzyl)-7-(2-pyridine-carbonylamino)-benzoxazole] | 3.92 | 6.12 | –
COc1ccc(Cc2nc3cc(Cl)cc(CC(N)=O)c3o2)cc1OC1CCCC1 [Example 30, 2-(3-Cyclopentyloxy-4-methoxybenzyl)-5-chlorobenzoxazole-7-acetamide] | 3.89 | 5.53 | –
COc1ccc(Cc2nc3cccc(Br)c3o2)cc1OC1CCCC1 [Example 19, 2-((3-Cyclopentyloxy-4-methoxy)benzyl)-7-bromo-benzoxazole] | 5.55 | 6.33 | –
COc1ccc(Cc2nc3cccc(NC(=O)OCc4ccccc4)c3o2)cc1OC1CCCC1 [Example 18, 7-((Benzyloxycarbonyl)amino)-2-((3-Cyclopentyloxy-4-methoxy)-benzyl)-benzoxazole] | < 3.52 | 5.46 | –
Nc1cccc2nc(-c3cccc(Cl)c3)oc12 [Example 32] | < 3.52 | 4.49 | –
Clc1cccc(-c2nc3cccc(NCc4ccccn4)c3o2)c1 [Example 33, 2-(3-chlorophenyl)-7-(2-pyridylmethylamino)benzoxazole] | 3.76 | 5.04 | –
C=CCc1cc(Cl)cc2nc(Cc3ccccc3Cl)oc12 [Example 38, 2-(2-Chlorobenzyl)-5-chloro-7-allylbenzoxazole] | 3.97 | 5.27 | –
COc1ccc(Cc2nc3cc(Cl)cc(CC(=O)O)c3o2)cc1OC1CCCC1 [Example 29, 2-(3-Cyclopentyloxy-4-methoxybenzyl)-5-chlorobenzoxazole-7-acetic Acid] | 4.00 | 4.95 | –
C=CCc1cc(Cl)cc2nc(Cc3ccc(OC)c(OC4CCCC4)c3)oc12 [Example 1, 7-Allyl-5-chloro-2-(3-cyclopentyloxy-4-methoxybenzyl)-benzoxazole] | < 3.52 | – | 22
CC(C)(C)c1cc(CCc2nc3ccccc3o2)cc(C(C)(C)C)c1O [Example 47, 2-[2-(4-Hydroxy-3,5-di-t-butyl-phenyl)]Ethylbenzoxazole] | < 3.52 | 4.04 | –
CC(C)(C)c1cc(Cc2nc3cc(Cl)cc(C#Cc4nccs4)c3o2)cc(C(C)(C)C)c1O [Example 3, 5-Chloro-2-(3,5-di-t-butyl-4-hydroxy-benzyl)-7-(2-(2-thiazolyl)-ethynyl)-benzoxazole] | – | 8.00 | –
